According to publication PMC2360547 (British Journal of Cancer, 2006):
Where “and” joins values, the source holds several entries; their conditions need not be identical. Equal values may be shown once. Read-outs that look alike come from different tables or passages of the source.

Assays:
[1] = set-up: method as in Propper et al, 2001; settings: Phase I trial, oral; ref Propper et al, 2001; cited from earlier work
[2] = Plasma concentrations by HPLC with fluorescence detection; format: in vivo, human; settings: for concentration at 28 day: human, plasma, oral, 75 mg tid, 12 subjects, about 1 month of 75 mg tid; for Plasma concentrations: individual subjects, sampling day 27-30, midostaurin 75 mg tid
Procedure: (§1) Therefore, the tumour tissue was frozen and cut into as small as possible pieces with a scalpel. The pieces were weighed, added to 1 ml of water, vortexed and thereafter treated like plasma. The assay for plasma samples was validated with acceptable calibration curves, within-study variability and total recovery. […] Due to limited availability of tumour tissue, the within-study validation for tumour assay was not performed.

[3] = Tumour tissue concentrations by HPLC with fluorescence detection; format: in vivo, human; settings: for Kp at 28 day / concentration at 28 day: human, oral, 10 subjects; for Kp at 28 day: tumour tissue / plasma, 75 mg three times a day; for Kp at 28 day / Tissue/plasma ratios: tumour tissue to plasma; for concentration at 28 day / Tissue concentrations: tumour tissue, about 1 month of 75 mg tid; for concentration at 28 day: 75 mg tid; for Tissue/plasma ratios / Tissue concentrations: individual subjects
Procedure: as §1

[4] = tested on: PKC isotypes; settings: metabolites, compared with parent drug; no reference given; read-out: IC50 against PKC isotypes; cited from earlier work
[5] = read-out: Plasma concentrations, maximum
[6] = read-out: Plasma concentrations, mean
[7] = read-out: Plasma concentrations, median
[8] = read-out: Plasma concentrations, minimum
[9] = read-out: Tissue/plasma ratios, maximum
[10] = read-out: Tissue/plasma ratios, mean
[11] = read-out: Tissue/plasma ratios, median
[12] = read-out: Tissue/plasma ratios, minimum
[13] = read-out: Tissue concentrations, maximum
[14] = read-out: Tissue concentrations, mean
[15] = read-out: Tissue concentrations, median
[16] = read-out: Tissue concentrations, minimum

SMILES | Estimated median elimination t1/2 [1] [days] | concentration at 28 day [2, 5] [µM] | concentration at 28 day [2, 6] [µM] | concentration at 28 day [2, 7] [µM] | concentration at 28 day [2, 8] [µM] | Plasma concentrations [2] | Kp at 28 day [3, 9] | Kp at 28 day [3, 10] | Kp at 28 day [3, 11] | Kp at 28 day [3, 12] | concentration at 28 day [3, 13] [nM] | concentration at 28 day [3, 14] [nM] | concentration at 28 day [3, 15] [nM] | concentration at 28 day [3, 16] [nM] | Tissue/plasma ratios [3] | Tissue concentrations [3] | IC50 [4] [nM]
CO[C@@H]1[C@H](N(C)C(=O)c2ccccc2)C[C@H]2O[C@]1(C)n1c3ccccc3c3c4c(c5c6ccccc6n2c5c31)C(=O)NC4O (single isomer, unassigned) [CGP52421 (e2)] | 36 | 22.4 | 17.3 | 18.4 | 10.8 | 19.151 µM and 16.633 µM and 11.311 µM and 18.383 µM and 19.519 µM and 18.475 µM and 22.448 µM and 13.352 µM and 10.767 µM and 15.869 µM and 20.34 µM and 20.944 µM | 0.153 | 0.085 | 0.083 | 0.033 | 3210 | 1500 | 1520 | 635 | 0.03 and 0.09 and 0.07 and 0.06 and 0.12 and 0.08 and 0.11 and 0.05 and 0.15 | 635 nM and 1528 nM and 789 nM and 1031 nM and 2367 nM and 1569 nM and 1503 nM and 776 nM and 1644 nM and 3212 nM | 
CO[C@@H]1[C@H](N(C)C(=O)c2ccccc2)C[C@H]2O[C@]1(C)n1c3ccccc3c3c4c(c5c6ccccc6n2c5c31)C(=O)N[C@H]4O [CGP52421] |  |  |  | 18.4 |  |  |  |  | 0.083 |  |  |  | 1520 |  |  |  | 50
CN(C(=O)c1ccccc1)[C@@H]1C[C@H]2O[C@@](C)([C@@H]1O)n1c3ccccc3c3c4c(c5c6ccccc6n2c5c31)C(=O)NC4 [CGP 62221] |  | 10.1 | 5.36 | 5.43 | 2.47 | 4.66 µM and 3.227 µM and 2.474 µM and 7.205 µM and 5.723 µM and 6.061 µM and 10.132 µM and 2.995 µM and 5.761 µM and 5.28 µM and 5.265 µM and 5.586 µM | 0.42 | 0.21 | 0.2 | 0.04 | 2350 | 990 | 710 | 175 | 0.04 and 0.19 and 0.21 and 0.11 and 0.35 and 0.34 and 0.12 and 0.22 and 0.42 | 175 nM and 609 nM and 523 nM and 759 nM and 2006 nM and 661 nM and 1022 nM and 651 nM and 1143 nM and 2353 nM | 120
